Calls of active or inactive are those of the source.
Key:
[1] = target: T1, Calpain-2 catalytic subunit (Sus scrofa, UniProt P43367); assay: pig calpain II inhibitor potency, dose response, biochemical, fluorogenic peptide substrate (AID 1420); type: functional
T1 sequence (P43367 whole entry): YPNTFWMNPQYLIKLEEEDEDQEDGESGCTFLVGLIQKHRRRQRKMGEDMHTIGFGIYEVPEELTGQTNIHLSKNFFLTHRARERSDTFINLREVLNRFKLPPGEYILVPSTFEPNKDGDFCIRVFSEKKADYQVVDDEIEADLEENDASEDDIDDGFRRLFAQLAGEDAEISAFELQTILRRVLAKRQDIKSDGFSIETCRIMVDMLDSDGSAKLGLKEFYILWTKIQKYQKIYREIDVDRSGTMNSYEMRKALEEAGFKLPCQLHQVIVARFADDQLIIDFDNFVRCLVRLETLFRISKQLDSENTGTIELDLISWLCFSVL

[2] = Artemis endonuclease inhibitor potency, dose response, biochemical, fluorescence intensity (AID 720701); type: functional;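 also: Artemis endonuclease enzyme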
[3] = cytotoxicity in HPDE-C7 cells, cell-based, fluorescence, HTS (AID 430); type: functional; details: Homo sapiens
[4] = Luminescence Cell-Based Dose Retest to Confirm Inhibitors of Cancer Stem Cells. [Related pubchem assays (depositor defined):AID2717, AID2721]; type: functional; details: Homo sapiens
[5] = cytotoxicity in KRAS-transformed pancreatic duct cells, primary screen, cell-based, fluorescence, HTS (AID 431); type: functional; details: Homo sapiens;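 also: cell line used: HPDE-C7K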
[6] = off-target signal loss in HeLa-CEM21 co-culture – HeLa F-luc CTL cells, cherry-picked, counter-screen for HIV-1 Env fusion inhibitor project, dose response (AID 652040); type: functional, cell-based;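 also: potency for signal decrease marking cytotoxic or nonspecific inhibition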
[7] = ZM109 Env clade C HIV-1 fusion inhibitors, dose response, HeLa effector, CEM target cells, luciferase, cherry-pick (AID 652058); type: functional, cell-based
[8] = inhibitors of clade B AD8 Env fusion, dose response, cell-based, cherry-pick (AID 652062); type: functional;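 also: luciferase signal from cell-cell fusion driven by HIV-1 clade B AD8 Env; potency is for inhibitors of fusion seen as a drop in luminescence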
[9] = target: 5-hydroxytryptamine receptor 2A (Mus musculus, UniProt P35363); type: functional, cell-based;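 also: CHO-K1 cells with tagged receptor and beta-arrestin; agonist potency measured as compound-induced activation of the receptor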
Mu-type opioid receptor = Mu-type opioid receptor (Homo sapiens, UniProt P35372); type: functional, cell-based;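 also: U2OS cells with beta-arrestin recruitment to OPRM1 by beta-gal complementation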
[10] = HEp-2 cell cytotoxicity, dose response, cytotoxicity control for RSV inhibitor project, HTS (AID 2410); type: functional; details: human respiratory syncytial virus
Paired box protein Pax-8 = Paired box protein Pax-8 (Homo sapiens, UniProt Q06710); assay: inhibitors of PAX8-driven TPO luciferase reporter, dose response, RMG-I cells, cherry-pick (AID 687027); type: functional, cell-based;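 also: luciferase reporter driven by Pax8 target thyroperoxidase promoter measured by SteadyGlo luminescence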
BJ [11] = assay: cells; type: functional, cell-based; details: Homo sapiens
BJ [12] = assay: cytotoxicity toward BJ-TERT fibroblasts, dose response, cell-based, RAS-independent, luminescence (AID 1933); type: functional; details: Homo sapiens
[13] = inhibitors of HIV Env-driven cell fusion, dose response, cherry-pick (AID 652057); type: functional, cell-based
BJ [14] = assay: cytotoxicity toward BJ-TERT-LT-ST fibroblasts, dose response, cell-based, RAS-independent, luminescence (AID 1935); type: functional; details: Homo sapiens;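 also: BJ fibroblasts immortalized with TERT plus LT and ST oncogenes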
BJ [15] = assay: cytotoxicity toward Ras-transformed BJeLR fibroblasts, dose response, cell-based, alamar blue fluorescence, cherrypicked samples (AID 2631); type: functional; details: Homo sapiens;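 also: confirmatory dose-response assay in RAS-dependent BJ fibroblasts engineered with TERT, LT and ST, with cytotoxicity read by fluorescence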
[16] = cytotoxicity toward DRD oncogenic fibroblasts, dose response, cell-based, non-viral oncogenic, luminescence (AID 1934); type: functional; details: Homo sapiens
Cytochrome P450 2C9 = Cytochrome P450 2C9 (Homo sapiens, UniProt P11712)
Cytochrome P450 2D6 = Cytochrome P450 2D6 (Homo sapiens, UniProt P10635);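 also: CYP2D6 member of a cytochrome P450 panel assay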
[17] = miR-122 activators in hepatoma reporter cells, dose response, cell-based, Huh7 psiCHECK-miR122, Renilla luciferase, cherry-picked (AID 651956); type: functional;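 also: huh7 hepatoma cells stably carrying a psiCHECK-2 miR-122 sensor plasmid; renilla luciferase signal reporting endogenous miR-122 activity after 48 h compound exposure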
[18] = target: T2, DNA repair protein RAD52 homolog (Homo sapiens, UniProt P43351); type: functional, biochemical
T2 sequence (P43351 whole entry): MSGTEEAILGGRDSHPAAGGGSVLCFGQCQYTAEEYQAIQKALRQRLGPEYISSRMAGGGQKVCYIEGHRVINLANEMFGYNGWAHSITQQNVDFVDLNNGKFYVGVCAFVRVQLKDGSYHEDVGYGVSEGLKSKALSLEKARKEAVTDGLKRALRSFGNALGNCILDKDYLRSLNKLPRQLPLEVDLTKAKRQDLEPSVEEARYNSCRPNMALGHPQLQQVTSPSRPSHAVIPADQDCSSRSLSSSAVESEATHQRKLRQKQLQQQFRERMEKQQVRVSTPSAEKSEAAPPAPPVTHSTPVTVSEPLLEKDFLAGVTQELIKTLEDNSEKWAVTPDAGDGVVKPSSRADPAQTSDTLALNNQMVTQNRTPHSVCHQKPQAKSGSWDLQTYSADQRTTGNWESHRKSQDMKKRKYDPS

[19] = target: T3, Ubiquitin-conjugating enzyme E2 N (Homo sapiens, UniProt P61088); type: functional;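 also: Dose-response confirmation in a TR-FRET assay detecting UBC13-driven polyubiquitin chain formation, inhibition measured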
T3 sequence (P61088 whole entry): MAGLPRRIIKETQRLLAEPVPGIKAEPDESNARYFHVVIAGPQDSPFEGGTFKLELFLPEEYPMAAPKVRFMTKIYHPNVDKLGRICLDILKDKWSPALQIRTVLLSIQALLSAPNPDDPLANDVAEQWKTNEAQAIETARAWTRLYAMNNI

Estrogen receptor beta [20] = target: T4, Estrogen receptor beta (Homo sapiens, UniProt Q92731); assay: ERβ–SRC-3 coactivator interaction inhibitors, confirmation, orthogonal assay, biochemical, ELISA, streptavidin-HRP readout (AID 1060)
Estrogen receptor beta [21] = target: T4, Estrogen receptor beta
[22] = target: T5, Rac GTPase-activating protein 1 (Homo sapiens, UniProt Q9H0H5); assay: MgcRacGAP GTPase-activating activity inhibitors, confirmation, biochemical, ADP Hunter fluorescence, primary and confirmatory (AID 624330); type: functional
T5 sequence (Q9H0H5 whole entry): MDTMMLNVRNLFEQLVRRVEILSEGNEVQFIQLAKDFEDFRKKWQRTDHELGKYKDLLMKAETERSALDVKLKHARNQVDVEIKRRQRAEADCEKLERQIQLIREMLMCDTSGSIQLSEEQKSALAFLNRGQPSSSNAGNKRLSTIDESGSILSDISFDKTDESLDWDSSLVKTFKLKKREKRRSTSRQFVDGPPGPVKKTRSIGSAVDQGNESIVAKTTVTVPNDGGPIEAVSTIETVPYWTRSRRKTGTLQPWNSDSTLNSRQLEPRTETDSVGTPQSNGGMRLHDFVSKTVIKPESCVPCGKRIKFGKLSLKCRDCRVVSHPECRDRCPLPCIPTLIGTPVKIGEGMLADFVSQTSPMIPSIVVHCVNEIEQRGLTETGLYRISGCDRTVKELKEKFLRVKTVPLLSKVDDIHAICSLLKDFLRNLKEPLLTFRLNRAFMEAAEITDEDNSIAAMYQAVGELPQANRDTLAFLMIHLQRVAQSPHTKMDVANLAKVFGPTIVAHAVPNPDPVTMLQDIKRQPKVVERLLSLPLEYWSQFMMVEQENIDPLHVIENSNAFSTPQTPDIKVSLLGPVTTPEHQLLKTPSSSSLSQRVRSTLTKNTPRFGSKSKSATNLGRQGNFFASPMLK

[23] = inhibitors of SNCA 5'UTR-driven reporter translation, confirmation, H4 neuroglioma cells, luminescence (AID 1988); type: functional, cell-based
[24] = Luminescence Cell-Based Dose Response HTS to Identify Inhibitors of 5'UTR Stem-Loop Driven Prion Protein mRNA Translation in H4 Neuroglioblastoma Cells. [Related pubchem assays: 1827 (Project Summary), 1813 (Primary HTS)]; type: functional
[25] = cytotoxicity in OVCAR8 ovarian cancer cells, dose response, PAX8 project, cell-based, plate reader, dry powder samples (AID 743197); type: functional; details: OVCAR-8
[26] = NIH:OVCAR-3 ovarian cancer cell cytotoxicity, dose response, PAX8 inhibitor project, plate reader, dry powder samples (AID 743044); type: functional, cell-based
[27] = target: FAD-linked sulfhydryl oxidase ALR (Homo sapiens, UniProt P55789); assay: inhibitors of human ALR sulfhydryl oxidase, dose response, biochemical, H2O2 detection, luminescence, cherry-pick (AID 493248)
Sequence of FAD-linked sulfhydryl oxidase ALR (P55789 whole entry): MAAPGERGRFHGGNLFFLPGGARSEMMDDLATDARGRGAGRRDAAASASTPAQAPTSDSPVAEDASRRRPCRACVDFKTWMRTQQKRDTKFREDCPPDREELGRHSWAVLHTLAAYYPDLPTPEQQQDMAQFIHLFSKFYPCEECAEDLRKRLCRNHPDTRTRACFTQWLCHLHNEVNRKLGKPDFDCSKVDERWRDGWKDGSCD

Sequence of 5-hydroxytryptamine receptor 2A (P35363 whole entry): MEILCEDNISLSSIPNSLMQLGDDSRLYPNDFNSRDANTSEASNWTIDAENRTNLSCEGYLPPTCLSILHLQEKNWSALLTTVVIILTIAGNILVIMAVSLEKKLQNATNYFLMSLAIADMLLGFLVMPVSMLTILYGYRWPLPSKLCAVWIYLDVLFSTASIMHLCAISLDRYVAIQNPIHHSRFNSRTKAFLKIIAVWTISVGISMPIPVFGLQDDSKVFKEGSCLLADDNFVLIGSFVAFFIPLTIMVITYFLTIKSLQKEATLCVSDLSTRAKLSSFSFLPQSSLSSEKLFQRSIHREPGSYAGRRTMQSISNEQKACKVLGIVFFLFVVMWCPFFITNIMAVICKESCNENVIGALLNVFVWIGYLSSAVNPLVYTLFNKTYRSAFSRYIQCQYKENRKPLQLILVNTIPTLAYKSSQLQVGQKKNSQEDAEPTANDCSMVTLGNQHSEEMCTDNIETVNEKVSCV
Sequence of Paired box protein Pax-8 (Q06710 whole entry): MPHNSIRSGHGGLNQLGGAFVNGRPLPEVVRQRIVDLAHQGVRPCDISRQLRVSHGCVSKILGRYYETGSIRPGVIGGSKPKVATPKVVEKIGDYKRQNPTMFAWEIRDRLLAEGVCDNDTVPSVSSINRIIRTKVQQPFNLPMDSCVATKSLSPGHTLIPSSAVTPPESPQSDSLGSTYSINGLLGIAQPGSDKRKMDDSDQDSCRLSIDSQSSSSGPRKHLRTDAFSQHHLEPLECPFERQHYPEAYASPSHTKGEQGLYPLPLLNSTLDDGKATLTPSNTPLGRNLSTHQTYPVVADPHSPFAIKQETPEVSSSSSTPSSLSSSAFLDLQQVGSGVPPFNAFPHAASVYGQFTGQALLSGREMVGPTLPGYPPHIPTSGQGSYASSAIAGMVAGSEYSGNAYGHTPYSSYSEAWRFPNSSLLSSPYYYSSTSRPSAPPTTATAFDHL
Sequence of Mu-type opioid receptor (P35372 whole entry): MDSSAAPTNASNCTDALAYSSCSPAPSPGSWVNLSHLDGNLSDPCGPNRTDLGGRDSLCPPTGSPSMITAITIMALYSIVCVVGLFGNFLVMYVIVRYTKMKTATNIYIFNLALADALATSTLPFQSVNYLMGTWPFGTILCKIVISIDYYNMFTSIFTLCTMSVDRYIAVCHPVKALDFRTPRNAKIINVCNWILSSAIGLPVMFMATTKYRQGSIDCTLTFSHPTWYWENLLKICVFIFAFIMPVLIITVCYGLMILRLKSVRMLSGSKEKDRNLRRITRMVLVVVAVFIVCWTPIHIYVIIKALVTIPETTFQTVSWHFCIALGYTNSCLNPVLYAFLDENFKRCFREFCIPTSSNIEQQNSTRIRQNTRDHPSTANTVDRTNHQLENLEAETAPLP
T4 sequence (Q92731 whole entry): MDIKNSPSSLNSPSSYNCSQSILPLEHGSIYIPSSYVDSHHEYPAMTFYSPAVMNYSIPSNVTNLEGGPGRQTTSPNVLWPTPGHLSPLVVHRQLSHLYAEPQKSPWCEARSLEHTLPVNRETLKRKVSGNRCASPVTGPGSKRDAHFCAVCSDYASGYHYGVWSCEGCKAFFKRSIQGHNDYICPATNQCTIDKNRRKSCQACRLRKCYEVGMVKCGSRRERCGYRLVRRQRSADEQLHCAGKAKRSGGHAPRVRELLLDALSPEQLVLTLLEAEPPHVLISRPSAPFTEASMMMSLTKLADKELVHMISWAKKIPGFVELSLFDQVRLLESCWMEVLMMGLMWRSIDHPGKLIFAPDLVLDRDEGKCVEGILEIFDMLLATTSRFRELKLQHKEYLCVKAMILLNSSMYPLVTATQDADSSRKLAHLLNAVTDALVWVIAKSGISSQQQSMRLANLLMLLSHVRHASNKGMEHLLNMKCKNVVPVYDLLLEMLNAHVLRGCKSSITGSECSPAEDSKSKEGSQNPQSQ
Sequence of Cytochrome P450 2C9 (P11712 whole entry): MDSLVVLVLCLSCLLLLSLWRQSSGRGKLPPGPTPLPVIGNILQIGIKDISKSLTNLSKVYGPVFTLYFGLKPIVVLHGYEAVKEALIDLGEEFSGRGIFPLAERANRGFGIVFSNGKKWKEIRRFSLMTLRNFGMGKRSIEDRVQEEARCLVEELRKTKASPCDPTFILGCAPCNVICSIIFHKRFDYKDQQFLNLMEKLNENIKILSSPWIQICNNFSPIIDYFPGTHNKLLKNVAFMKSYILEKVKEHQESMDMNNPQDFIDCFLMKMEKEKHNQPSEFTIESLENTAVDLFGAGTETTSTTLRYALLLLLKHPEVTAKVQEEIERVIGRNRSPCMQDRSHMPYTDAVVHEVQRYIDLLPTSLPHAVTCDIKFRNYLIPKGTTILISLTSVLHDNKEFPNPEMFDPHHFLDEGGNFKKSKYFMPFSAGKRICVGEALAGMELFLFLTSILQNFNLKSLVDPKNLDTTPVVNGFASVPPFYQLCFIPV
Sequence of Cytochrome P450 2D6 (P10635 whole entry): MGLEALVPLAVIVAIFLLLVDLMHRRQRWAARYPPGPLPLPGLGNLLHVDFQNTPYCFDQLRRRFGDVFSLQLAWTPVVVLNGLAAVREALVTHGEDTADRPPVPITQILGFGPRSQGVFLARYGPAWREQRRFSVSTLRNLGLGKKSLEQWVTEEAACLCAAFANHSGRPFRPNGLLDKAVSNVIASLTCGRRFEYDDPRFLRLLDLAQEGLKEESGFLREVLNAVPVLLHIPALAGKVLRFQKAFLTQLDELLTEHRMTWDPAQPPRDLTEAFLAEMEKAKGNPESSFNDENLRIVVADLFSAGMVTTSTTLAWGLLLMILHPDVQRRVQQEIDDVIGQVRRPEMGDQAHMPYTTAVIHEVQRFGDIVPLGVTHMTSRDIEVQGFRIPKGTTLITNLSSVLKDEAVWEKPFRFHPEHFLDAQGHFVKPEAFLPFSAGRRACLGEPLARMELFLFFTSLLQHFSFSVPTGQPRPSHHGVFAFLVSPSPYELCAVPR

N#CC(C#N)=C(N)CSc1cccc[n+]1[O-]
IC50 [1]: > 50 µM (not active)

CC(C)(C)OC(=O)NCCCC[C@H](NC(=O)c1[nH]cnc1C(=O)NCc1ccccc1)C(=O)OC(C)(C)C
IC50 [1]: 10.5 µM (not active)

CC(C)(C)Nc1nc(NN)nc(NC(C)(C)C)n1
IC50 [2]: 17.9 µM (active)

CCCCN(C)c1nc(-c2ccco2)c2c(c1C#N)CC(C)(C)OC2
EC50 [3]: 13.9 µM (active) | AC50 [4]: 7.53 µM (active) | EC50 [5]: 13.9 µM (active)

CNc1nc2c(c(=O)n(C)c(=O)n2C)n1Cc1ccccc1
AC50 [6]: > 70 µM (inactive) | AC50 [7]: 10.2 µM (active) | AC50 [8]: 13.9 µM (active)

CCCCN(CC)CCCNC(=O)CC1Oc2ccccc2NC1=O (configuration not stated)
EC50 [9]: 3.3 µM (active) | EC50 (Mu-type opioid receptor): 92.5 µM (inactive)

Cc1ccc(Cn2c(C)nc3c(c2=O)c2nc4ccccc4nc2n3Cc2ccco2)cc1
IC50 [2]: > 20 µM (inactive) | CC50 [10]: 29 µM (active)

CC[C@@]1(O)C(=O)OCc2c1cc1n(c2=O)Cc2cc3c(NC(=O)CN)cccc3nc2-1
AC50 (Paired box protein Pax-8): 1.11 µM (active) | AC50 [4]: 0.281 µM (active) | EC50 (BJ [11]): 1.46 µM (active) | EC50 (BJ [12]): 10.3 µM (active) | AC50 [6]: 0.896 µM (active) | AC50 [13]: 618 nM (active) | EC50 (BJ [14]): 1.2 µM (active) | AC50 [7]: < 0.26 µM (active) | EC50 (BJ [15]): 418 nM (active) | EC50 [16]: 2.4 µM (active) | AC50 [8]: 14.6 µM (active)

O=C(CCC1CCCCC1)Nc1c2c(nn1-c1ccc(F)cc1)CS(=O)(=O)C2
EC50 [3]: > 20 µM (not active) | AC50 (Cytochrome P450 2C9): 12.6 µM (inconclusive) | AC50 (Cytochrome P450 2D6): 11.2 µM (inconclusive) | EC50 [5]: > 20 µM (not active)

Nc1ccc(Oc2ccc(Br)cc2)cc1
AC50 [17]: 378 nM (active)

O=C(c1cccs1)N1CCN(Cc2ccccc2)CC1
EC50 [9]: 1.02 µM (active) | EC50 (Mu-type opioid receptor): 92.4 µM (inactive)

COc1cccc2sc(N(CCCN(C)C)C(=O)c3sc4ccccc4c3Cl)nc12
AC50 [18]: 6.13 µM (active) | IC50 [19]: > 20 µM (inactive)

O=C(Cc1cccs1)Nc1ccc(-c2nnn(CC(=O)N3CCOCC3)n2)cc1
IC50 (Estrogen receptor beta [20]): > 50 µM (not active) | IC50 (Estrogen receptor beta [21]): 2.92 µM (active)

COc1ccccc1C(=O)NC(CCSC)C(=O)N1CCN(C/C=C/c2ccccc2)CC1 (configuration not stated)
AC50 [6]: 10.7 µM (active) | AC50 [13]: 4510 nM (active) | AC50 [7]: 2.79 µM (active) | AC50 [8]: 12.8 µM (active)

CC1(C)Nc2cccc3cccc(c23)N1
IC50 [22]: 21.6 µM (active) | AC50 [18]: 25.6 µM (active)

O=[N+]([O-])c1cc(/C=N/n2cnnc2)ccc1N1CCCC1
EC50 [23]: 9.55 µM (active) | IC50 [1]: 36.6 µM (not active) | EC50 [24]: 16.9 µM (active)

COc1cccc(C#Cc2ccc3c(c2)O[C@@H](CN(C)C(=O)c2ccccn2)[C@H](C)CN([C@@H](C)CO)S3(=O)=O)c1
AC50 (Paired box protein Pax-8): 5.17 µM (active) | AC50 [25]: 34.1 µM (active) | AC50 [26]: 41.2 µM (active)

Cc1ccc(S(=O)(=O)Nc2ccc3c(c2)CC(=O)N([C@H](C)CO)C[C@H](C)[C@H](CN(C)S(=O)(=O)c2ccccc2)O3)cc1
AC50 [13]: 877 nM (active) | AC50 [7]: 2.46 µM (active) | AC50 [8]: 3.38 µM (active)

C[C@H]1CCCCO[C@H](CN(C)Cc2ccc(C(F)(F)F)cc2)[C@@H](C)CN([C@@H](C)CO)C(=O)c2cc(NS(=O)(=O)c3cccs3)ccc2O1
AC50 (Paired box protein Pax-8): 5.95 µM (active) | AC50 [25]: > 70 µM (inactive) | AC50 [26]: 37.6 µM (active)

CC(C)(C)c1nnc2sc(SC/C(O)=C(\C#N)c3nc4ccccc4[nH]3)nn2c1=O
IC50 (Estrogen receptor beta [20]): 40.6 µM (not active) | IC50 (Estrogen receptor beta [21]): 4 µM (active)

O=C(N/N=C/c1ccc(O)c(O)c1)C1c2ccccc2Oc2ccccc21
IC50 [2]: > 20 µM (inactive) | IC50 [22]: 50.6 µM (active) | AC50 [27]: 439 nM (active)

CCCN(CCC)C1CCc2cccc(O)c2C1 (configuration not stated)
EC50 [9]: 2.3 µM (active) | EC50 (Mu-type opioid receptor): 92.5 µM (inactive)

CC(C(=O)O)c1ccc(C(=O)c2cccs2)cc1 (configuration not stated) [SUPROFEN]
EC50 [9]: 5.34 µM (active) | EC50 (Mu-type opioid receptor): 92.6 µM (inactive)

— ChEMBL document CHEMBL1201862, “PubChem BioAssay data set” (2004)
